In article PMC4810081, “Venetoclax (ABT-199) Might Act as a Perpetrator in Pharmacokinetic Drug–Drug Interactions” (Pharmaceutics, 2016):

Assays:
[1] = tested on: cell lines used for P-gp, BCRP, and OATP inhibition assays; assay: Cytotoxicity assay (Cytotoxicity Detection Kit); assay type: cell-based; settings: up to 100 µM, all cell lines used
Protocol: Prior to P-gp, BCRP, and OATP inhibition assays, venetoclax was tested in the respective cell lines for cytotoxic effects with the Cytotoxicity Detection Kit (Roche Applied Science, Mannheim, Germany). Venetoclax was not cytotoxic up to 100 µM in all cell lines used.

CYP1A2 = assay: Western blot of CYP1A2 protein expression in LS180 cells; assay type: in vitro ADME, human; settings: four days
Protocol: For the induction experiments, LS180 cells were seeded in 75 cm^2 culturing flasks and incubated for three days. Cells were then treated with a culture medium containing venetoclax (0.01–10 µM) in quintuplicate for four consecutive days. Rifampicin (20 µM) served as a positive control for PXR-driven genes and culture medium as a negative control. All incubation solutions were adjusted to 0.02% DMSO. After harvesting, cells were split for RNA and protein extraction.
To exemplarily verify the effects of venetoclax on mRNA expression, protein expressions of P-gp and CYP1A2 were analyzed in triplicate by SDS polyacrylamide gel electrophoresis (SDS-PAGE) and Western blotting. In brief, cell lysates containing 20 µg protein were mixed with 5× sample buffer (containing Tris–HCl, SDS, DTT, bromophenol blue, and glycerol) and subjected to 10% SDS-PAGE. Afterwards, proteins were electrotransferred to nitrocellulose nitrate membranes. Blots were blocked by incubation for 20–40 min with 5% Slim-Fast® (w/v) in phosphate-buffered saline containing 0.1% Tween®20. […] Bands were visualized by enhanced chemiluminescence using the SuperSignal®West Pico Chemiluminescent Substrate Kit and recorded by FluorChem Q SA AlphaView Version 3.2.2, Cell Biosciences (Santa Clara, CA, USA).

[2] = Growth inhibition assay in MDCKII-MRP2 cells; assay type: cell-based; settings: dog, MDCKII-MRP2 cells (MRP2 over-expressing)
Protocol: MDCKII cells. […] Moreover, MDCKII-BCRP cells were used to assess BCRP inhibition by venetoclax. MDCKII over-expressing cell lines were kindly provided by A. H. Schinkel and P. Borst (Amsterdam, The Netherlands). The parental cell line MDCKII (available at ATCC, Manassas, VA, USA) was used as a control. The cells were cultured in Dulbecco’s Modified Eagle’s Medium (DMEM) containing 10% FCS, 2 mM of glutamine, 100 U/mL of penicillin, and 100 µg/mL of streptomycin sulfate. Growth inhibition assays in LS180 cells were conducted to determine suitable maximum concentrations for the induction assay without profound antiproliferative effects. Proliferation was quantified by crystal violet staining of the surviving cells as described previously. […] Growth inhibition assays in MDCKII, and their MRP2 or BCRP over-expressing counterparts ([…], MDCKII-BCRP) and in LLC-PK1 and the corresponding P-gp over-expressing cell line L-MDR1 were conducted to evaluate whether venetoclax sustains its efficacy in MDR cell lines.

## CC1(C)CCC(CN2CCN(c3ccc(C(=O)NS(=O)(=O)c4ccc(NCC5CCOCC5)c([N+](=O)[O-])c4)c(Oc4cnc5[nH]ccc5c4)c3)CC2)=C(c2ccc(Cl)cc2)C1 [Venetoclax]
[1]
  cytotoxic effects: not cytotoxic
CYP1A2
  CYP1A2 protein expression: induction
[2]
  IC50: 17.2 ± 1.8 µM
